According to patent US20170008888A1 (KYORIN PHARMACEUTICAL CO., LTD., priority 2014, published 2017):

Columns and labels:
AurA = molecular target: T1, AurA (Homo sapiens, UniProt O14965); assay: Probe-based (AX9989) kinase profiling in Jurkat lysate: AurA; format: binding; settings: read-out: Kinase inhibition % at indicated screening concentration: AurA; for inhibition at 1 µM: screening concentration 1.0 μM; for inhibition at 0.1 µM: screening concentration 0.1 μM
T1 construct: screened for activity against several kinases in Jurkat cells; endogenous in cells; host or cells: Jurkat cell lysate
T1 sequence (O14965 1-403): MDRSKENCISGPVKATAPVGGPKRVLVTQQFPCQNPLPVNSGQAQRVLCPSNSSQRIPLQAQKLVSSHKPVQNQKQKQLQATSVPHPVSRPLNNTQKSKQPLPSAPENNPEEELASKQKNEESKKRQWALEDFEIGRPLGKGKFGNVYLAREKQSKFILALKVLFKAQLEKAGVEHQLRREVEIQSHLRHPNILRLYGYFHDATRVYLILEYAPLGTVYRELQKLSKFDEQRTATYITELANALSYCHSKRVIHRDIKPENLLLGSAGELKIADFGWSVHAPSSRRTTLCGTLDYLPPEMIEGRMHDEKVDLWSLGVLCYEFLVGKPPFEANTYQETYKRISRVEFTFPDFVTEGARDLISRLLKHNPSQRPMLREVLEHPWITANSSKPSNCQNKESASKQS
In short: (§1)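 Percent inhibition was derived from reduced LC/MS fragment intensities of probe-labeled peptides relative to compound-free controls. Before labeling with 5 μM AX9989, Mn2+-supplemented (20 mM) Jurkat lysate was exposed to compound for 15 min at room temperature.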

ABL or ARG = assay: Probe-based (AX9989) kinase profiling in Jurkat lysate: ABL or ARG; format: binding
In short: as §1

human PBMCs = assay: Human PBMC TNF-α response to endotoxin (ELISA); format: cell-based; settings: 0.1 μg/ml LPS 16 h, read-out: EC50 for the inhibition of the human PBMC TNF-α response to endotoxin, ave. ± S.D.
In short: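 PBMCs at 2e6 cells/ml in RPMI 1640 with 10% charcoal-dextran-treated FBS were pre-treated 1 h at 37 °C with compound (4-point 1:5 dilution from 10 μM). Stimulation with 0.1 μg/ml E. coli 0111:B4 LPS for 16 h; TNF-α measured by ELISA (A450) in 25-fold diluted supernatant.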

AMPKa1 or AMPKa2 = assay: Probe-based (AX9989) kinase profiling in Jurkat lysate: AMPKa1 or AMPKa2; format: binding
In short: as §1

| Structure (SMILES) | inhibition at 1 µM (AurA) | Kinase inhibition % at indicated screening concentration: ABL or ARG (ABL or ARG; screening concentration 1.0 μM) | EC50 (human PBMCs) | Kinase inhibition % at indicated screening concentration: AMPKa1 or AMPKa2 (AMPKa1 or AMPKa2; screening concentration 1.0 μM) | inhibition at 0.1 µM (AurA) | Kinase inhibition % at indicated screening concentration: ABL or ARG (ABL or ARG; screening concentration 0.1 μM) | Kinase inhibition % at indicated screening concentration: AMPKa1 or AMPKa2 (AMPKa1 or AMPKa2; screening concentration 0.1 μM) |
| --- | --- | --- | --- | --- | --- | --- | --- |
| CCOc1cc(C(=O)N2CCN(CCOCCO)CC2)ccc1Nc1cc2c(cn1)N(C)C(=O)c1ccccc1N2C [Compound 6] | ≤ 35% | E (E is ≦35%) | 0.54 µM | E (E is ≦35%) | – | – | – |
| CCOc1cc(C(=O)N2CCCN(C)CC2)ccc1Nc1cc2c(cn1)N(C)C(=O)c1ccccc1N2C [Compound 8] | ≤ 35% | E (E is ≦35%) | 0.65 µM | E (E is ≦35%) | – | – | – |
| CCOc1cc(C(=O)N2CCN(CC3CC3)CC2)ccc1Nc1cc2c(cn1)N(C)C(=O)c1ccccc1N2C [Compound 10] | – | – | 1.28 µM | – | ≤ 35% | E (E is ≦35%) | E (E is ≦35%) |
| CCOc1cc(C(=O)N2CCC(N3CCCC3)CC2)ccc1Nc1cc2c(cn1)N(C)C(=O)c1ccccc1N2C [Compound 46, 3-(2-Ethoxy-4-(4-(pyrrolidin-1-yl)piperidine-1-carbonyl)phenylamino)-5,11-dimethyl-5H-benzo[e]pyrido[3,4-b][1,4]diazepin-10(11H)-one] | ≤ 35% | E (E is ≦35%) | 0.47 µM | E (E is ≦35%) | – | – | – |
| Cc1cc(CN2CC[C@@H](N3CCCC3)C2)ccc1Nc1cc2c(cn1)N(C)C(=O)c1ccccc1N2C [Compound 49] | – | – | 1.51 µM | – | ≤ 35% | E (E is ≦35%) | E (E is ≦35%) |
| CCOc1cc(C(N)=O)ccc1Nc1cc2c(cn1)N(C)C(=O)c1ccccc1N2C [Compound 51] | – | – | 2.04 µM | – | ≤ 35% | E (E is ≦35%) | E (E is ≦35%) |
| CCOc1cc(C(=O)N2CCC(O)CC2)ccc1Nc1cc2c(cn1)N(C)C(=O)c1ccccc1N2C [Compound 52] | ≤ 35% | E (E is ≦35%) | 0.82 µM | E (E is ≦35%) | – | – | – |
| CN1C(=O)c2occc2N(C)c2cc(N[C@H]3CC[C@H](N)CC3)ncc21 [Compound 53] | ≤ 35% | E (E is ≦35%) | 4.13 µM | E (E is ≦35%) | – | – | – |
| CCOc1cc(C(=O)NCCCN(CC)CC)ccc1Nc1cc2c(cn1)N(C)C(=O)c1ccccc1N2C [Compound 54] | ≤ 35% | E (E is ≦35%) | 0.6 µM | E (E is ≦35%) | – | – | – |
| CCOc1cc(C(=O)NCCN(C(C)C)C(C)C)ccc1Nc1cc2c(cn1)N(C)C(=O)c1ccccc1N2C [Compound 55] | – | – | 1.16 ± 0.45 µM | – | ≤ 35% | E (E is ≦35%) | E (E is ≦35%) |
| CCOc1cc(C(=O)N2CC[C@@H](N3CCCCC3)C2)ccc1Nc1cc2c(cn1)N(C)C(=O)c1occc1N2C [Compound 56] | – | – | 0.6 ± 0.19 µM | – | ≤ 35% | E (E is ≦35%) | E (E is ≦35%) |
| CCOc1cc(C(=O)NCC2CC2)ccc1Nc1cc2c(cn1)N(C)C(=O)c1ccccc1N2C [Compound 57] | ≤ 35% | E (E is ≦35%) | 1.08 µM | E (E is ≦35%) | – | – | – |
| CCOc1cc(C(=O)N2CCC(N3CCN(C)CC3)CC2)ccc1Nc1cc2c(cn1)N(C)C(=O)c1ccccc1N2C [Compound 61] | ≤ 35% | E (E is ≦35%) | 0.89 ± 0.29 µM | E (E is ≦35%) | – | – | – |
| CCOc1cc(C(=O)N2CCNCC2)ccc1Nc1cc2c(cn1)N(C)C(=O)c1ccccc1N2C [Compound 62] | ≤ 35% | E (E is ≦35%) | 0.72 µM | E (E is ≦35%) | – | – | – |
| CCOc1cc(C(=O)N2CCC(OC)CC2)ccc1Nc1cc2c(cn1)N(C)C(=O)c1ccccc1N2C [Compound 63] | ≤ 35% | E (E is ≦35%) | 0.87 µM | E (E is ≦35%) | – | – | – |
| CN1C(=O)c2ccccc2N(C)c2cc(NC3CCC(C(=O)NC4CCOCC4)CC3)ncc21 (centres unmarked) [Compound 64] | ≤ 35% | E (E is ≦35%) | 3.17 µM | E (E is ≦35%) | – | – | – |
| CCOc1cc(C(=O)N2CCC(N3CCN(C)CC3)CC2)ccc1Nc1cc2c(cn1)N(C)C(=O)c1occc1N2C [Compound 65] | – | – | 0.46 µM | – | ≤ 35% | E (E is ≦35%) | E (E is ≦35%) |
| CCOc1cc(C(=O)NCCO)ccc1Nc1cc2c(cn1)N(C)C(=O)c1ccccc1N2C [Compound 66] | ≤ 35% | E (E is ≦35%) | 1.33 µM | E (E is ≦35%) | – | – | – |
| CCOc1cc(C(=O)N2CC[C@@H](N(CC)CC)C2)ccc1Nc1cc2c(cn1)N(C)C(=O)c1occc1N2C [Compound 67] | – | – | 0.92 ± 0.18 µM | – | ≤ 35% | E (E is ≦35%) | E (E is ≦35%) |
| CCOc1cc(C(=O)N[C@@H]2CCCOC2)ccc1Nc1cc2c(cn1)N(C)C(=O)c1ccccc1N2C [Compound 69] | ≤ 35% | E (E is ≦35%) | 1.07 µM | E (E is ≦35%) | – | – | – |
